Patent US20230167088A1, “1-PYRAZINYLPYRAZOLYL-3-OXYALKYL ACIDS AND THEIR DERIVATIVES, AND THEIR USE FOR CONTROL OF UNDESIRED PLANT GROWTH” (BAYER AKTIENGESELLSCHAFT, priority 2020, published 2023)

Legend:
SETVI = assay: Herbicidal pre-emergence action 2a (greenhouse pots, visual scoring); assay type: in vivo, Setaria viridis; conditions: dosage 320 g/ha, visual scoring after about 3 weeks vs untreated controls
Method in brief: (§1)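 The soil covering sown seeds is treated with an aqueous suspension or emulsion of wettable powder or emulsion concentrate (0.5% additive, 600 l/ha), corresponding to 320 g/ha and/or 80 g/ha. After about 3 weeks of greenhouse growth, damage is scored visually as a percentage.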

harmful plants = assay: Herbicidal pre-emergence action 2a, summary across species; assay type: in vivo; conditions: Tables B1 to B15 (320 g/ha and/or 80 g/ha)
Text: a) Seeds of monocotyledonous and dicotyledonous weed plants and crop plants are placed in plastic or organic plant pots and covered with soil. The compounds of the invention, formulated in the form of wettable powders (WP) or as emulsion concentrates (EC), are then applied onto the surface of the covering soil as aqueous suspension or emulsion with addition of 0.5% additive at a water application rate of 600 1/ha (converted). After the treatment, the pots are placed in a greenhouse and kept under good growth conditions for the trial plants. After about 3 weeks, the effect of the preparations is scored visually in comparison with untreated controls as percentages. For example, 100% activity=the plants have died, 0% activity=like control plants.
Tables B1 to B15 below show the effects of selected compounds of the general formula (I) according to Tables 1 and 2 on various harmful plants and an application rate corresponding to 320 g/ha and/or 80 g/ha, which were obtained by the experimental procedure mentioned above.
For example, compound nos. I-07, I-08, I-11, I-12, I-13, I-16, I-17, I-20, I-36, I-37, I-39, I-45, I-46, I-48, I-52 and I-53 in the pre-emergence method have very good action (80% to 100% herbicidal activity) against harmful plants such as Alopecurus myosuroides, Amaranthus retroflexus, Digitaria sanguinalis, Lolium rigidum, Polygonum convolvulus, Setaria viridis, Veronica persica and Viola tricolor at an application rate of 0.32 kg of active substance per hectare.

VERPE [1] = assay: Herbicidal post-emergence action 1a (greenhouse pots, visual rating); assay type: in vivo, Veronica persica; conditions: dosage 80 g/ha, visual rating about 3 weeks after treatment
Method in brief: (§2)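 Visual scoring versus untreated plants (100% = plants dead, 0% = as control) followed roughly 3 weeks in the greenhouse after treatment. Plants grown in sandy loam pots had been sprayed on green parts at the one-leaf stage, 2–3 weeks post-sowing, with aqueous WP/EC preparations containing 0.5% additive, 600 l/ha, at 320 and/or 80 g/ha.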

AVEFA [2] = assay: Herbicidal pre-emergence action 2a (greenhouse pots, visual scoring); assay type: in vivo, Avena fatua; conditions: dosage 320 g/ha, visual scoring after about 3 weeks
Method in brief: as §1

VIOTR [3] = assay: Herbicidal post-emergence action 1a (greenhouse pots, visual rating); assay type: in vivo, Viola tricolor; conditions: dosage 80 g/ha, visual rating about 3 weeks after treatment
Method in brief: as §2

POLCO [4] = assay: as above; assay type: in vivo, Polygonum convolvulus; conditions: dosage 80 g/ha, visual rating about 3 weeks after treatment
Method in brief: as §2

POLCO [5] = assay: Herbicidal pre-emergence action 2a (greenhouse pots, visual scoring); assay type: in vivo, Polygonum convolvulus; conditions: dosage 320 g/ha, visual scoring after about 3 weeks vs untreated controls
Method in brief: as §1

ECHCG [6] = assay: Herbicidal post-emergence action 1a (greenhouse pots, visual rating); assay type: in vivo, Echinochloa crus-galli; conditions: rated visually about 3 weeks after treatment, 100% = plants have died, 0% = like control plants
Method in brief: as §2

ECHCG [7] = assay: Herbicidal pre-emergence action 2a (greenhouse pots, visual scoring); assay type: in vivo, Echinochloa crus-galli; conditions: dosage 320 g/ha, visual scoring after about 3 weeks
Method in brief: as §1

HORMU [8] = assay: Herbicidal post-emergence action 1a (greenhouse pots, visual rating); assay type: in vivo, Hordeum murinum; conditions: rated visually about 3 weeks after treatment, 100% = plants have died, 0% = like control plants
Experimental: (§3) [table] a) Seeds of monocotyledonous and dicotyledonous weeds and crop plants are placed in sandy loam in plastic or organic plant pots, covered with soil and cultivated in a greenhouse under controlled growth conditions. 2 to 3 weeks after sowing, the test plants are treated at the one-leaf stage. The compounds of the invention, formulated in the form of wettable powders (WP) or as emulsion concentrates (EC), are then sprayed onto the green parts of the plants as aqueous suspension or emulsion with addition of 0.5% additive at a water application rate of 600 1/ha (converted). After the test plants have been kept in the greenhouse under optimum growth conditions for about 3 weeks, the activity of the preparations is rated visually in comparison to untreated controls. For example, 100% activity=the plants have died, 0% activity=like control plants. Tables A1 to A15 below show the effects of selected compounds of the general formula (I) according to Tables 1 and 2 on various harmful plants and an application rate corresponding to 320 g/ha and/or 80 g/ha, which were obtained by the experimental procedure mentioned above.

PHBPU = assay: as above; assay type: in vivo, Pharbitis purpurea; conditions: dosage 80 g/ha, visual rating about 3 weeks after treatment
Method in brief: as §2

AMARE [9] = assay: as above; assay type: in vivo, Amaranthus retroflexus; conditions: dosage 80 g/ha, visual rating about 3 weeks after treatment
Method in brief: as §2

MATIN = assay: as above; assay type: in vivo, Matricaria inodora; conditions: dosage 320 g/ha, visual rating about 3 weeks after treatment
Method in brief: as §2

HORMU [10] = assay: Herbicidal pre-emergence action 2a (greenhouse pots, visual scoring); assay type: in vivo, Hordeum murinum; conditions: dosage 320 g/ha, visual scoring after about 3 weeks vs untreated controls
Text: (§4) [table] a) Seeds of monocotyledonous and dicotyledonous weed plants and crop plants are placed in plastic or organic plant pots and covered with soil. The compounds of the invention, formulated in the form of wettable powders (WP) or as emulsion concentrates (EC), are then applied onto the surface of the covering soil as aqueous suspension or emulsion with addition of 0.5% additive at a water application rate of 600 1/ha (converted). After the treatment, the pots are placed in a greenhouse and kept under good growth conditions for the trial plants. After about 3 weeks, the effect of the preparations is scored visually in comparison with untreated controls as percentages. For example, 100% activity=the plants have died, 0% activity=like control plants. Tables B1 to B15 below show the effects of selected compounds of the general formula (I) according to Tables 1 and 2 on various harmful plants and an application rate corresponding to 320 g/ha and/or 80 g/ha, which were obtained by the experimental procedure mentioned above.

STEME [11] = assay: Herbicidal post-emergence action 1a (greenhouse pots, visual rating); assay type: in vivo, Stellaria media; conditions: Dosage 80 g/ha; rated visually about 3 weeks after treatment; 100% = plants have died, 0% = like control plants
Experimental: as §3

DIGSA [12] = assay: Herbicidal pre-emergence action 2a (greenhouse pots, visual scoring); assay type: in vivo, Digitaria sanguinalis; conditions: dosage 320 g/ha, visual scoring after about 3 weeks
Method in brief: as §1

LOLRI = assay: Herbicidal post-emergence action 1a (greenhouse pots, visual rating); assay type: in vivo, Lolium rigidum; conditions: Dosage 80 g/ha; rated visually about 3 weeks after treatment; 100% = plants have died, 0% = like control plants
Method in brief: as §2

AVEFA [13] = assay: as above; assay type: in vivo, Avena fatua; conditions: Dosage 80 g/ha; rated visually about 3 weeks after treatment; 100% = plants have died, 0% = like control plants
Method in brief: as §2

STEME [14] = assay: Herbicidal pre-emergence action 2a (greenhouse pots, visual scoring); assay type: in vivo, Stellaria media; conditions: dosage 320 g/ha, visual scoring after about 3 weeks vs untreated controls
Text: as §4

ALOMY [15] = assay: as above; assay type: in vivo, Alopecurus myosuroides; conditions: dosage 320 g/ha, visual scoring after about 3 weeks
Method in brief: as §1

ABUTH = assay: Herbicidal post-emergence action 1a (greenhouse pots, visual rating); assay type: in vivo, Abutilon theophrasti; conditions: dosage 320 g/ha, visual rating about 3 weeks after treatment
Method in brief: as §2

ALOMY [16] = assay: as above; assay type: in vivo, Alopecurus myosuroides; conditions: Dosage 80 g/ha; rated visually about 3 weeks after treatment; 100% = plants have died, 0% = like control plants
Method in brief: as §2

VIOTR [17] = assay: Herbicidal pre-emergence action 2a (greenhouse pots, visual scoring); assay type: in vivo, Viola tricolor; conditions: dosage 320 g/ha, visual scoring after about 3 weeks vs untreated controls
Method in brief: as §1

AMARE [18] = assay: as above; assay type: in vivo, Amaranthus retroflexus; conditions: dosage 320 g/ha, visual scoring after about 3 weeks vs untreated controls
Method in brief: as §1

VERPE [19] = assay: as above; assay type: in vivo, Veronica persica; conditions: dosage 320 g/ha, visual scoring after about 3 weeks vs untreated controls
Method in brief: as §1

DIGSA [20] = assay: Herbicidal post-emergence action 1a (greenhouse pots, visual rating); assay type: in vivo, Digitaria sanguinalis; conditions: rated visually about 3 weeks after treatment, 100% = plants have died, 0% = like control plants
Experimental: as §3

`C=CCOC(=O)C(C)Oc1nn(-c2cnccn2)c(-c2ccc(F)nc2)c1Br` (racemic) [Example I-13] was tested, and the “Pre-emergence action against SETVI in %” value (SETVI) was 100%, the “herbicidal efficacy against harmful plants in the case of pre-emergence treatment (in words)” value (harmful plants) was “good herbicidal efficacy” and the “Post-emergence action against VERPE in %” value (VERPE [1]) was 90%. For the same compound, the “Pre-emergence action against AVEFA in %” value (AVEFA [2]) was 90%, the “Post-emergence action against VIOTR in %” value (VIOTR [3]) was 90% and the “Post-emergence action against POLCO in %” value (POLCO [4]) was 80%. The “Pre-emergence action against POLCO in %” value (POLCO [5]) was 90%, the “Post-emergence action against ECHCG in %” value (ECHCG [6]; Dosage 80 g/ha) was 80% and the “Post-emergence action against ECHCG in %” value (ECHCG [6]; Dosage 320 g/ha) was 90%. For the same compound, the “Pre-emergence action against ECHCG in %” value (ECHCG [7]) was 100%, the “Post-emergence action against HORMU in %” value (HORMU [8]; Dosage 80 g/ha) was 90% and the “Post-emergence action against HORMU in %” value (HORMU [8]; Dosage 320 g/ha) was 90%. The “Post-emergence action against PHBPU in %” value (PHBPU) was 80%, the “Post-emergence action against AMARE in %” value (AMARE [9]) was 80% and the “Post-emergence action against MATIN in %” value (MATIN) was 80%. The “Pre-emergence action against HORMU in %” value (HORMU [10]) was 100%, the “Post-emergence action against STEME in %” value (STEME [11]) was 90% and the “Pre-emergence action against DIGSA in %” value (DIGSA [12]) was 100%. For the same compound, the “Post-emergence action against LOLRI in %” value (LOLRI) was 80%, the “Post-emergence action against AVEFA in %” value (AVEFA [13]) was 100% and the “Pre-emergence action against STEME in %” value (STEME [14]) was 90%. For the same compound, the “Pre-emergence action against ALOMY in %” value (ALOMY [15]) was 100%, the “Post-emergence action against ABUTH in %” value (ABUTH) was 80% and the “Post-emergence action against ALOMY in %” value (ALOMY [16]) was 90%. For the same compound, the “Pre-emergence action against VIOTR in %” value (VIOTR [17]) was 100%, the “Pre-emergence action against AMARE in %” value (AMARE [18]) was 100% and the “Pre-emergence action against VERPE in %” value (VERPE [19]) was 100%. For the same compound, the “Post-emergence action against DIGSA in %” value (DIGSA [20]; Dosage 80 g/ha) was 80% and the “Post-emergence action against DIGSA in %” value (DIGSA [20]; Dosage 320 g/ha) was 90%.
